Assays:
[1] = tested on: TMD8 p53^MUT ABC-subtype DLBCL xenograft model; test: TMD8 DLBCL xenograft; assay type: in vivo
[2] = tested on: p53 pathway (p53, p21, PHLDA3); test: Targeted proteomic analysis of RS4;11 tumors: p53 pathway biomarkers; assay type: in vivo, NOD/SCID mice
Experimental: (§1) RS4;11 and MV4;11 tumors were established subcutaneously in the hind flank of NOD/SCID mice. Mice were randomized and treated with Compound A as either a single pulse dose or weekly for 3 weeks at doses matched for total AUC. MDM2 SMI DS-3032 (Milademetan) was dosed at its clinically equivalent dose and regimen of 3 days on/11 days off. Pharmacodynamic effects were assessed at mRNA level by RT-qPCR and protein level by quantitative targeted mass spectrometry and immunohistochemistry.

CTG-2700 AML PDX model = test: AML PDX model CTG-2700; assay type: in vivo, mice; conditions: 1 mg/kg, Q3W, IV
Experimental: (§2) AML patient cells from leukapheresis were intravenously (IV) injected and established in immunocompromised host strain mice. Surrogate animals were used to determine the level of engraftment targeting a threshold of ˜20% huCD45+ cells in BM. Mice were randomized on study and treatment was initiated. Vehicle and Compound A, 1 mg/kg were administered IV, every three weeks for six weeks (total of two doses of Compound A). At study end, whole blood, bone marrow and spleen were assessed by flow cytometry.

CTG-2240 AML PDX model = test: AML PDX model CTG-2240; assay type: in vivo, mice; conditions: 1 mg/kg, Q3W, IV
Experimental: as §2

[3] = tested on: apoptotic gene BBC3 in RS4;11 tumors; test: qPCR analysis of RS4;11 tumors; assay type: in vivo, NOD/SCID mice
Experimental: as §1

Measured pKa = assay type: physicochemical; conditions: free base
Experimental: (§3) Compound A for injection was manufactured as a concentrated frozen solution containing 10 mg/mL of free base intended to be diluted with an intravenous (IV) infusion vehicle (normal saline, 0.9% sodium chloride, injection). […] To achieve drug concentration of 10 mg/mL, formulation development focused on identifying acceptable pharmaceutical solvents, surfactants, and pH modifiers to achieve the required solubility of Compound A.

RS4;11 ALL model = test: RS4;11 ALL xenograft efficacy; assay type: in vivo, NOD/SCID mice; conditions: for median survival: n=6 animals/group
Experimental: as §1

[4] = tested on: OCI-LY10 p53^WT ABC-subtype DLBCL xenograft model; test: OCI-LY10 DLBCL xenograft; assay type: in vivo
[5] = tested on: panel of solid and hematological tumor cell lines; test: Cell growth inhibition across tumor cell line panel; assay type: cell-based; conditions: versus MDM2 small molecule inhibitors (SMIs)
Experimental: (§4) All cell lines were cultured according to recommended procedures unless otherwise noted. For growth inhibition assays, cells were treated with compounds for indicated time points. Viability was assessed using Promega® CellTiter-Glo® assay, and apoptosis was assessed using Promega® Caspase-Glo® 3/7 assay. Cell cycle arrest and/or apoptosis in response to single agent or combination treatment was assessed using flow cytometry analysis on cells treated for 24h.

[6] = tested on: acute lymphoblastic leukemia (ALL) cell line RS4;11; test: MDM2/p53 pathway and apoptosis in RS4;11 cells; assay type: cell-based
MDM2 = target: T1, MDM2 (Homo sapiens, UniProt Q00987); test: Targeted proteomic analysis of RS4;11 tumors: MDM2; assay type: in vivo, NOD/SCID mice; conditions: one hour post dosing
T1 construct: RS4;11 and MV4;11 tumors were established subcutaneously in the hind flank of NOD/SCID mice; endogenous in cells; host or cells: RS4;11 xenograft tumors in NOD/SCID mice
Experimental: as §1

[7] = tested on: hCD45+ cells in bone marrow and AML blasts; test: Flow cytometry of AML PDX models; assay type: in vivo, mice; conditions: 1 mg/kg, Q3W
Experimental: as §2

MOLM-13 cell line = test: Combination apoptosis and cell killing in MOLM-13; assay type: cell-based; conditions: combination with venetoclax and midostaurin
Experimental: as §4

[8] = tested on: p53 pathway and cleaved caspase-3 (CC-3) in RS4;11 tumors; test: IHC analysis of RS4;11 tumors; assay type: in vivo, NOD/SCID mice; conditions: n=3/group
Experimental: as §1

[9] = tested on: CTG-2227 AML patient-derived xenograft (PDX) model; test: AML PDX model CTG-2227; assay type: in vivo, mice; conditions: 1 mg/kg, Q3W, IV
Experimental: as §2

[10] = tested on: p53 pathway and cleaved caspase-3 (CC-3) in MV4;11 tumors; test: IHC analysis of MV4;11 tumors; assay type: in vivo, NOD/SCID mice; conditions: n=3/group
Experimental: as §1

MOLM-13 xenograft model = test: MOLM-13 xenograft combination study; assay type: in vivo
[11] = Solubility/stability screening in IV excipients; assay type: physicochemical
Text: Initial solubility screening of Compound A focused on using different enabling excipients suitable for IV administration. The screening included surfactants, cosolvents, and pH modifiers (i.e., glacial acetic acid, and hydrochloric acid). […] As a result, the selected formulation to support the GLP toxicology study was comprised of 30% propylene glycol, 3% Solutol HS15, and 0.01 M in acetate buffer at pH 5±0.2.
The clinical formulation development was centered on using organic concentrates without water to avoid hydrolysis of Compound A. Additional solubility and stability evaluations of Compound A were conducted with different types of co-solvents and surfactants with and without butylated hydroxytoluene as antioxidant.

[12] = Aqueous solubility of drug substance; assay type: physicochemical; conditions: aqueous media over pH 3 to 8, aqueous buffer, pH range between 3 to 8
Experimental: as §3

MV4;11 AML model = test: MV4;11 AML xenograft efficacy; assay type: in vivo, NOD/SCID mice
Experimental: as §1

[13] = tested on: multiple heme indications (AML, T cell lymphomas, mantle cell lymphoma, DLBCL); test: In vitro activity across heme indications; assay type: cell-based; conditions: mantle cell lymphoma and DLBCL most sensitive
Experimental: as §4

Measured Log D = assay type: physicochemical; conditions: free base

T1 sequence (Q00987 whole entry): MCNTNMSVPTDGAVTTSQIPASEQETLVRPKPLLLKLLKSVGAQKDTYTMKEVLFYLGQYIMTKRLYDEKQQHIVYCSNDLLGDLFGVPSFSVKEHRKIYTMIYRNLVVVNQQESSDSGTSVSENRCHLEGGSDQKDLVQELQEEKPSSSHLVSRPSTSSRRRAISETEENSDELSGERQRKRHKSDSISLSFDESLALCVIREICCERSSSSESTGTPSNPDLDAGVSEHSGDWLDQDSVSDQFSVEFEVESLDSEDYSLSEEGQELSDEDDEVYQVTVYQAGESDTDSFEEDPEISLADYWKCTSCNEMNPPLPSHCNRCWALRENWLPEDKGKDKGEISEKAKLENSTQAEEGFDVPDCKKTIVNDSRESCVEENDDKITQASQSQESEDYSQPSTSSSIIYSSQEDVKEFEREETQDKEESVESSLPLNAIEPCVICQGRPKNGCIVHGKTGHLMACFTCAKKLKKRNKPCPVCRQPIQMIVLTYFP

For `Cn1c(=O)n(C2CCC(=O)NC2=O)c2ccc(C3CCN(C(=O)[C@H]4CC[C@H](NC(=O)[C@@H]5NC6(CCCCC6)[C@@]6(C(=O)Nc7cc(Cl)ccc76)[C@H]5c5cccc(Cl)c5F)CC4)CC3)cc21` (stereo partly drawn) [Compound A, (3′R,4′S,5′R)-6″-chloro-4′-(3-chloro-2-fluorophenyl)-N-((1R,4R)-4-(4-(1-(2,6-dioxopiperidin-3-yl)-3-methyl-2-oxo-2,3-dihydro-1H-benzo[d]imidazol-5-yl)piperidine-1-carbonyl)cyclohexyl)-2″-oxodispiro[cyclohexane-1,2′-pyrrolidine-3′,3″-indoline]-5′-carboxamide], which “highly active in xenograft model” value [1] is on record?
Its value is “not”.

What about the “proteomics biomarkers p53, p21 (cell cycle arrest marker) and PHLDA3 (apoptotic marker)” value [2] of the same compound?
Its value is “upregulation”.

And the tumor response (CTG-2700 AML PDX model)?
Its tumor response is “partial responses”.

What about the tumor response (CTG-2240 AML PDX model) of the same compound?
The tumor response was “partial responses”.

What about the “plasma concentration required for induction of the apoptotic gene BBC3” value ([3]; RS4;11 tumors) of the same compound?
The value was “above 0.02 uM”.

What about the “increase in apoptotic markers (qPCR)” value ([3]; exposure-matched weekly dosing, n=3/group) of the same compound?
Its value is “only a moderate increase”.

And the “induction of the apoptotic gene BBC3 (qPCR)” value ([3]; single doses that lead to tumor regression, n=3/group)?
The value was “robust induction”.

And the pKa (Measured pKa)?
The pKa was 5.

And the tumor response (RS4;11 ALL model; exposure-matched weekly dosing)?
Its tumor response is “tumor stasis”.

And the “plasma concentration required for tumor regression” value (RS4;11 ALL model; maintained for 12 to 22 hours)?
Its value is “above 0.01 uM”.

What about the median survival (RS4;11 ALL model; single dose at 3 mg/kg) of the same compound?
Its median survival is 50 days.

What about the tumor response (RS4;11 ALL model; single doses) of the same compound?
Its tumor response is “tumor regression”.

What about the “activity in xenograft model” value [4] of the same compound?
Its value is “highly active”.

What about the “cell growth inhibition compared to SMIs” value [5] of the same compound?
The value was > 200 fold.

And the “effect on p53-dependent upregulation of MDM2 protein levels” value ([6]; compared with reversible SMIs)?
The value was “can overcome the p53-dependent upregulation of MDM2 protein levels”.

What about the “apoptosis in washout experiments” value ([6]; pulsed dose, mediated through p53 target genes) of the same compound?
The value was “can lead to apoptosis”.

What about the p53 stabilization ([6]; short 2 hour exposures, versus SMIs) of the same compound?
Its p53 stabilization is “more potently stabilize p53 than SMIs”.

And the “degradation of MDM2 in tumors” value (MDM2)?
Its value is “robust degradation”.

What about the “hCD45+ cells in bone marrow and AML blasts” value [7] of the same compound?
The value was “significantly reduces”.

And the “induction of apoptosis and cell killing” value (MOLM-13 cell line)?
Its value is “enhances induction of apoptosis and cell killing”.

What about the “activation of the p53 pathway and induction of CC-3 (IHC)” value ([8]; single dose versus exposure-matched weekly dosing) of the same compound?
Its value is “more robust activation of the p53 pathway and induction of cleaved caspase-3 (CC-3)”.

And the tumor response [9]?
Its tumor response is “tumor regression”.

And the “robust activation of the p53 pathway and induction of CC-3 (IHC)” value ([10]; exposure-matched weekly dosing)?
The value was “not”.

What about the “activation of the p53 pathway and induction of CC-3 (IHC)” value ([10]; single dose) of the same compound?
Its value is “robust activation of the p53 pathway and induction of cleaved caspase-3 (CC-3)”.

And the anti-tumor activity (MOLM-13 xenograft model; single dose of Compound A in combination with daily dosing of venetoclax)?
Its anti-tumor activity is “sustained tumor regression”.

And the solubility and stability ([11]; combination of polyethylene glycol 400, ethanol, polysorbate 80 and butylated hydroxytoluene, 10 mg/mL)?
Its solubility and stability is “sufficient solubility and stability”.

And the solubility ([11]; formulations containing propylene glycol, polyethylene glycol 400, Solutol HS15 and polysorbate 80 at low pH)?
Its solubility is “significantly enhanced”.

What about the solubility [12] of the same compound?
The solubility was < 0.01 mg/mL.

What about the complete responses (MV4;11 AML model; single dose at 3 mg/kg) of the same compound?
Its complete responses is 5 of 6.

What about the tumor-free on study (MV4;11 AML model; single dose at 3 mg/kg, 80 days post dosing) of the same compound?
Its tumor-free on study is 4 of 6.

And the in vitro activity [13]?
The in vitro activity was “active across multiple heme indications”.

And the logD (Measured Log D)?
The logD was > 3.7.

Which median survival (RS4;11 ALL model; clinically equivalent dosing regimen (3 days on/11 days off)) does the source give for `CC1(C)CCC2(CC1)N[C@@H](C(=O)N[C@@H]1CC[C@@H](C(N)=O)OC1)[C@H](c1ccnc(Cl)c1F)[C@]21C(=O)Nc2cc(Cl)ccc21` [DS-3032, Milademetan, reference compound] here?
The median survival was 12 days.

And the “induction of CC-3 (IHC)” value ([8]; treatment with the SMI)?
The value was “not observed”.

What about the “induction of CC-3 (IHC)” value ([10]; similar to the lower weekly dosing regimen of Compound A) of the same compound?
The value was “modest”.

What about the complete responses (MV4;11 AML model; clinically equivalent dose and regimen, n=6 animals/group) of the same compound?
The complete responses was “No complete responses”.

For `Nc1ccn([C@@H]2O[C@H](CO)[C@@H](O)[C@@H]2O)c(=O)n1` [cytarabine], which anti-tumor activity (MOLM-13 xenograft model; combination of cytarabine and venetoclax) is on record?
Its anti-tumor activity is “no significant anti-tumor activity”.

And the anti-tumor activity (MOLM-13 xenograft model; cytarabine alone)?
The anti-tumor activity was “no significant anti-tumor activity”.
